Experiments:
[1] = molecular target: T1, human CGRP receptor heterodimer (Homo sapiens, UniProt O60894+Q16602); experiment: Competition filtration binding with [3H]BIBN-4096 on SK-N-MC cell membranes; settings: [3H]BIBN-4096 130 pM, mean
T1 construct: Human SK-N-MC neuroblastoma cells, endogenously expressing the human CGRP receptor, are expanded in culture flasks; host or cells: P2 membranes of SK-N-MC neuroblastoma cells
Text: The equilibrium affinity constant (Ki) at the human CGRP receptor heterodimer may be determined using standard competition filtration binding methods with membranes prepared from cultured SK-N-MC neuroblastoma cells (ATCC) and a high-affinity CGRP receptor antagonist.
Membrane Production: Human SK-N-MC neuroblastoma cells, endogenously expressing the human CGRP receptor, are expanded in culture flasks (Corning, T225) using growth media containing Eagles's Minimum Essential Media (HyClone™) supplemented with 10% heat-inactivated fetal bovine serum (GIBCO®). When cell monolayers achieve a level of 70-80% confluence, they are dissociated from the culture flasks using TrypLE™ cell dissociation media (ThermoFisher Scientific). Dissociated cells are pelleted by centrifugation at 300×g to remove the growth and dissociation media. Centrifuged cell pellets are flash frozen in liquid nitrogen (−320° F.) for 30 sec and stored frozen at −80° C. until the subsequent membrane preparation.
A membrane preparation P2 pellet (second pellet from centrifugation procedure) is generated from harvested SK-N-MC frozen cultured cell pellets by diluting these cells on ice into 20 mM Tris-HCl buffer, pH 7.4, containing protease inhibitors (Pierce). Suspended cells are Dounce homogenized on ice and centrifuged at low speed (1000×g for 20 min at 4° C.) to remove cellular organelles and debris (P1 pellet). The supernatant, containing the soluble membrane fraction, is collected and subjected to a high speed centrifugation step (25,000×g for 1 hr at 4° C.) to isolate the resultant P2 membrane pellet. […] Protein concentration is determined using the Bradford Protein Assay (ThermoFisher Scientific). […]
Data Analysis: Bound radioactivity may be counted using a MicroBeta® Trilux Scintillation Counter (PerkinElmer®). […] Relative IC50 values are calculated using a four-parameter logistic curve fitting program (GraphPad Prism v8.3.0). Equilibrium dissociation binding constants (Ki) for the compounds are calculated from the following equation: […]

[2] = molecular target: T2, ABCB1, human P-glycoprotein (Pgp) (Homo sapiens, UniProt P08183); experiment: In vitro determination of efflux by Pgp, bi-directional transport across MDCKII cells; assay type: in vitro ADME; settings: MDCKII-ABCB1, 5 μM substrate, 60 min, B-A/A-B Papp ratios with and without inhibitor
T2 construct: host or cells: MDCKII cells
Method: Cell Culture: MDCKII cells stably expressing human wild-type ABCB1 (Pgp) are obtained from the Netherlands Cancer Institute (Amsterdam, The Netherlands). MDCK cells are maintained as described previously (Desai et al., Mol Pharm 10:1249-1261, 2013).
Bi-directional transport across MDCK cells: The assay is essentially conducted as described previously (Desai et al., Mol Pharm 10:1249-1261, 2013). Transport is measured in both directions across uninhibited and inhibited cell monolayers using a substrate concentration of 5 μM diluted from a 10 mM DMSO stock solution (final DMSO concentration of 0.05%) and a single 60-min time interval. […] The apparent permeability coefficients (Papp) are estimated as the slope of the mass transported per 60 min relative to the total recovered mass. The basal-to-apical (B-A)/apical-to-basal (A-B) Papp ratios are calculated in the absence or presence of inhibitor in each cell line for net efflux ratio (NER).

Row | Ki [1] [pM] | net efflux ratio (NER) for efflux by Pgp [2] | SMILES
1 | 350 | 1.9 | Cc1cc(N2CCC2)cc(OCc2ccc([C@@H](C)[C@@]3(C)C(=O)NC[C@@H]3CF)cc2)n1 [Example 1, (3R,4R)-3-[(1R)-1-[4-[[4-(azetidin-1-yl)-6-methyl-2-pyridyl]oxymethyl]phenyl]ethyl]-4-(fluoromethyl)-3-methyl-pyrrolidin-2-one]
2 | 980 | 1.6 | Cc1cc(N2CC(F)C2)cc(OCc2ccc([C@@H](C)[C@@]3(C)C(=O)NC[C@@H]3C)cc2)n1 [Example 2, (3R,4R)-3-[(1R)-1-[4-[[4-(3-fluoroazetidin-1-yl)-6-methyl-2-pyridyl]oxymethyl]phenyl]ethyl]-3,4-dimethyl-pyrrolidin-2-one]
3 | 930 |  | Cc1cc(N2CC(F)C2)cc(OCc2ccc([C@@H](C)[C@@]3(C)C(=O)NC[C@@H]3CF)cc2)n1 [Example 3, (3R,4R)-3-[(1R)-1-[4-[[4-(3-fluoroazetidin-1-yl)-6-methyl-2-pyridyl]oxymethyl]phenyl]ethyl]-4-(fluoromethyl)-3-methyl-pyrrolidin-2-one]
